Where two headings read alike, the source gives them in different places.
What was measured:
AP-1060 (ETV6-NTRK3) = experiment: Cell viability assay; settings: read-out: IC50 in cell proliferation assay
134 cancer cell lines = experiment: Cell viability assay (ATPlite, 72 hours), IC50 on cancer cell line panel

IC50 (134 cancer cell lines; HEC-6, read-out: IC50 in cell proliferation assay, HEC-6 cell line (EGFR p.A289V)): 14.8 µM
IC50 (134 cancer cell lines; Homo sapiens, 769-P, read-out: IC50 in cell proliferation assay, cell line 769-P): 20.2 µM
IC50 (134 cancer cell lines; Homo sapiens, 786-0, read-out: IC50 in cell proliferation assay, cell line 786-O): 21.3 µM
IC50 (134 cancer cell lines; Homo sapiens, A 172, read-out: IC50 in cell proliferation assay, cell line A-172): 17.4 µM
IC50 (134 cancer cell lines; Homo sapiens, A204, read-out: IC50 in cell proliferation assay, cell line A-204): 11.4 µM
IC50 (134 cancer cell lines; Homo sapiens, A498, read-out: IC50 in cell proliferation assay, cell line A-498): 20.4 µM
IC50 (134 cancer cell lines; Homo sapiens, A549, read-out: IC50 in cell proliferation assay, cell line A-549): 25.7 µM
IC50 (134 cancer cell lines; Homo sapiens, A704, read-out: IC50 in cell proliferation assay, cell line A-704): > 31.6 µM
IC50 (134 cancer cell lines; Homo sapiens, A-375, read-out: IC50 in cell proliferation assay, cell line A-375 (BRAF p.V600E)): 11.3 µM
IC50 (134 cancer cell lines; Homo sapiens, A-427, read-out: IC50 in cell proliferation assay, cell line A-427): 22.2 µM
IC50 (134 cancer cell lines; Homo sapiens, ACHN, read-out: IC50 in cell proliferation assay, cell line ACHN): 13.9 µM
IC50 (134 cancer cell lines; Homo sapiens, AN3-CA, read-out: IC50 in cell proliferation assay, cell line AN3-CA (FGFR2 p.N549K)): 24.5 µM
IC50 (134 cancer cell lines; Homo sapiens, ASPC1, read-out: IC50 in cell proliferation assay, cell line AsPC-1): > 31.6 µM
IC50 (134 cancer cell lines; Homo sapiens, AU565, read-out: IC50 in cell proliferation assay, cell line AU565 (ERBB2 amplification)): 0.125 µM
IC50 (134 cancer cell lines; Homo sapiens, BT-20, read-out: IC50 in cell proliferation assay, cell line BT-20): 28.8 µM
IC50 (134 cancer cell lines; Homo sapiens, BT-474, read-out: IC50 in cell proliferation assay, cell line BT-474 (ERBB2 amplification)): 0.029 µM
IC50 (134 cancer cell lines; Homo sapiens, BT-549, read-out: IC50 in cell proliferation assay, cell line BT-549): 15.9 µM
IC50 (134 cancer cell lines; Homo sapiens, BXPC-3, read-out: IC50 in cell proliferation assay, cell line BxPC-3): 12.6 µM
IC50 (134 cancer cell lines; Homo sapiens, C-33-A, read-out: IC50 in cell proliferation assay, cell line C-33 A): 0.412 µM
IC50 (134 cancer cell lines; Homo sapiens, CAL-27, read-out: IC50 in cell proliferation assay, cell line CAL-27): 13.7 µM
IC50 (134 cancer cell lines; Homo sapiens, CCF-STTG1, read-out: IC50 in cell proliferation assay, cell line CCF-STTG1): > 31.6 µM
IC50 (134 cancer cell lines; Homo sapiens, CCRF-CEM, read-out: IC50 in cell proliferation assay, cell line CCRF-CEM): 17.7 µM
IC50 (134 cancer cell lines; Homo sapiens, COLO 205, read-out: IC50 in cell proliferation assay, cell line COLO 205 (BRAF p.V600E)): 22.2 µM
IC50 (134 cancer cell lines; Homo sapiens, COLO-829, read-out: IC50 in cell proliferation assay, cell line COLO 829 (BRAF p.V600E)): 20.6 µM
IC50 (134 cancer cell lines; Homo sapiens, DLD-1, read-out: IC50 in cell proliferation assay, cell line DLD-1): 23.2 µM
IC50 (134 cancer cell lines; Homo sapiens, DU-4475, read-out: IC50 in cell proliferation assay, cell line DU4475 (BRAF p.V600E)): 10.7 µM
IC50 (134 cancer cell lines; Homo sapiens, Daoy, read-out: IC50 in cell proliferation assay, cell line Daoy): 30.2 µM
IC50 (134 cancer cell lines; Homo sapiens, DoTc2-4510, read-out: IC50 in cell proliferation assay, cell line DoTc2 4510): 5.59 µM
IC50 (134 cancer cell lines; Homo sapiens, EOL1, read-out: IC50 in cell proliferation assay, cell line EoL-1 (FIP1L1-PDGFRA)): 4.24 µM
IC50 (134 cancer cell lines; Homo sapiens, FaDu, read-out: IC50 in cell proliferation assay, cell line FaDu): 14.1 µM
IC50 (134 cancer cell lines; Homo sapiens, G-361, read-out: IC50 in cell proliferation assay, cell line G-361 (BRAF p.V600E)): 13.5 µM
IC50 (134 cancer cell lines; Homo sapiens, HCC827, read-out: IC50 in cell proliferation assay, cell line HCC827 (EGFR exon19del)): 2.38 µM
IC50 (134 cancer cell lines; Homo sapiens, HCC4006, read-out: IC50 in cell proliferation assay, cell line HCC4006 (EGFR exon19del)): 6.56 µM
IC50 (134 cancer cell lines; Homo sapiens, HCT-15, read-out: IC50 in cell proliferation assay, cell line HCT 15): 16.7 µM
IC50 (134 cancer cell lines; Homo sapiens, HCT-116, read-out: IC50 in cell proliferation assay, cell line HCT 116): 21.9 µM
IC50 (134 cancer cell lines; Homo sapiens, HEC-1, read-out: IC50 in cell proliferation assay, HEC-1 cell line): 13.9 µM
IC50 (134 cancer cell lines; Homo sapiens, HEC-1B, read-out: IC50 in cell proliferation assay, HEC-1-B cell line (EGFR p.A864V)): 1.62 µM
IC50 (134 cancer cell lines; Homo sapiens, HL-60, read-out: IC50 in cell proliferation assay, HL-60 cell line): 16.9 µM
IC50 (134 cancer cell lines; Homo sapiens, HT, read-out: IC50 in cell proliferation assay, HT cell line): 29.9 µM
IC50 (134 cancer cell lines; Homo sapiens, HT-1080, read-out: IC50 in cell proliferation assay, HT-1080 cell line): 17.2 µM
IC50 (134 cancer cell lines; Homo sapiens, Hs746T, read-out: IC50 in cell proliferation assay, Hs 746.T cell line (MET exon14skip + amplification)): 12.4 µM
IC50 (134 cancer cell lines; Homo sapiens, Hs-578T, read-out: IC50 in cell proliferation assay, Hs 578T cell line): 24.1 µM
IC50 (134 cancer cell lines; Homo sapiens, HuTu80, read-out: IC50 in cell proliferation assay, HuTu 80 cell line): 0.623 µM
IC50 (134 cancer cell lines; Homo sapiens, J82, read-out: IC50 in cell proliferation assay, J82 cell line): > 31.6 µM
IC50 (134 cancer cell lines; Homo sapiens, Jurkat E6.1, read-out: IC50 in cell proliferation assay, Jurkat E6.1 cell line): 14.7 µM
IC50 (134 cancer cell lines; Homo sapiens, K562, read-out: IC50 in cell proliferation assay, K-562 cell line): 8.53 µM
IC50 (134 cancer cell lines; Homo sapiens, KATO III, read-out: IC50 in cell proliferation assay, KATO III cell line (FGFR2 amplification)): 17.9 µM
IC50 (134 cancer cell lines; Homo sapiens, KG-1, read-out: IC50 in cell proliferation assay, KG-1 cell line (FGFR1OP2-FGFR1)): 16.2 µM
IC50 (134 cancer cell lines; Homo sapiens, KLE, read-out: IC50 in cell proliferation assay, KLE cell line): 4.74 µM
IC50 (134 cancer cell lines; Homo sapiens, KMS-11, read-out: IC50 in cell proliferation assay, KMS-11 cell line (FGFR3 p.Y373C)): 18.2 µM
IC50 (134 cancer cell lines; Homo sapiens, KU812, read-out: IC50 in cell proliferation assay, Ku812 cell line): 22.6 µM
IC50 (134 cancer cell lines; Homo sapiens, Kasumi 1, read-out: IC50 in cell proliferation assay, Kasumi-1 cell line (KIT p.N822K)): 24.3 µM
IC50 (134 cancer cell lines; Homo sapiens, LC-2-ad, read-out: IC50 in cell proliferation assay, LC-2/ad cell line (CCDC6-RET)): 22.5 µM
IC50 (134 cancer cell lines; Homo sapiens, LNCaP-Clone-FGC, read-out: IC50 in cell proliferation assay, LNCaP clone FGC cell line): 21.8 µM
IC50 (134 cancer cell lines; Homo sapiens, LS174T, read-out: IC50 in cell proliferation assay, LS174T cell line): 20.3 µM
IC50 (134 cancer cell lines; Homo sapiens, LS-411N, read-out: IC50 in cell proliferation assay, LS411N cell line (BRAF p.V600E)): 21.4 µM
IC50 (134 cancer cell lines; Homo sapiens, LoVo, read-out: IC50 in cell proliferation assay, LoVo cell line): 25.7 µM
IC50 (134 cancer cell lines; Homo sapiens, MCF7, read-out: IC50 in cell proliferation assay, MCF-7 cell line): 30.5 µM
IC50 (134 cancer cell lines; Homo sapiens, MDA-MB-231, read-out: IC50 in cell proliferation assay, MDA-MB-231 cell line): 22.5 µM
IC50 (134 cancer cell lines; Homo sapiens, MDA-MB-453, read-out: IC50 in cell proliferation assay, MDA-MB-453 cell line): 5.93 µM
IC50 (134 cancer cell lines; Homo sapiens, MDA-MB-468, read-out: IC50 in cell proliferation assay, MDA-MB-468 cell line): 8.88 µM
IC50 (134 cancer cell lines; Homo sapiens, MG-63, read-out: IC50 in cell proliferation assay, MG-63 cell line): 29.4 µM
IC50 (134 cancer cell lines; Homo sapiens, MIA PaCa-2, read-out: IC50 in cell proliferation assay, MIA PaCa-2 cell line): 18.3 µM
IC50 (134 cancer cell lines; Homo sapiens, MKN-45, read-out: IC50 in cell proliferation assay, MKN45 cell line (MET amplification)): 17.1 µM
IC50 (134 cancer cell lines; Homo sapiens, MOLM-13, read-out: IC50 in cell proliferation assay, MOLM-13 cell line (FLT3 ITD)): 14.3 µM
IC50 (134 cancer cell lines; Homo sapiens, MOLT-4, read-out: IC50 in cell proliferation assay, MOLT-4 cell line): 20.3 µM
Structure (SMILES): Cc1cc(Nc2ncnc3ccc(NC4=NC(C)(C)CO4)cc23)ccc1Oc1ccn2ncnc2c1 [tucatinib]
IC50 (AP-1060 (ETV6-NTRK3)): 29.1 µM

Source: paper PMC9516332 (Frontiers in Oncology, 2022)
